The nature of the data set: Pharmacokinetic study in rats after single oral administration of GLB (HPLC-UV in plasma). The format is in vivo, Sprague-Dawley rats. Particulars: for concentration at 0.5 h / concentration at 1 h / concentration at 2 h / concentration at 4 h / concentration at 6 h / concentration at 8 h / concentration at 12 h / concentration at 24 h / concentration at 36 h / concentration at 48 h / concentration at 72 h / concentration at 96 h: oral; for concentration at 0.5 h: 0.5 h after single oral GLB 100 mg/kg; for concentration at 1 h: 1 h after single oral GLB 100 mg/kg; for concentration at 2 h: 2 h after single oral GLB 100 mg/kg; for concentration at 4 h: 4 h after single oral GLB 100 mg/kg; for concentration at 6 h: 6 h after single oral GLB 100 mg/kg; for concentration at 8 h: 8 h after single oral GLB 100 mg/kg; for concentration at 12 h: 12 h after single oral GLB 100 mg/kg; for concentration at 24 h: 24 h after single oral GLB 100 mg/kg; for concentration at 48 h: 48 h after single oral GLB 100 mg/kg; for concentration at 72 h: 72 h after single oral GLB 100 mg/kg; for concentration at 96 h: 96 h after single oral GLB 100 mg/kg; for Tmax / half-life / Cmax / AUC(0-inf) / AUC(0-t): rat plasma, single oral GLB 100 mg/kg; for AUC(0-t): read-out: AUC(0-96). How it is done: The validated bioanalytical method was applied to the detection of GLB concentration in plasma after a single oral administration of GLB (100 mg/kg, n = 6) in rats. At 0.5 h after oral administration, the prototype drug of GLB was detected in rat plasma. The peak concentration of GLB was at 6 h (2.78 ± 0.89 μg/mL) with quantifiable at the 36 h (0.14 ± 0.18 μg/mL). At 96 h time point, low concentration of GLB was still detectable in rat plasma (Fig. 2B).
HPLC-UV analyses were performed with a DIONEX Ultimate 3000 HPLC system (Thermo Fisher Scientific, MA, USA), which included a double-ternary pump (DGP-3600SD), a temperature controlled automatic sampler (WPS-3000SL), a column temperature box (TCC-3000SD), and a ultraviolet (UV) detector (VWD-3400). The UV detection wavelength was set at 300 nm. The chromatographic separation was achieved on a reversed-phase Alltima C18 analytical column (150 mm × 4.6 mm; 5 μm), and the mobile phase was the mixture of acetonitrile and distilled water (65:35, v/v), running at the flow rate of 1.0 mL/min. The temperature of column box was kept at 25 °C. The injection volume was 20 μL. The HPLC data was processed using Chromeleon^TM 6.8 software (Thermo Fisher Scientific, MA, USA).
Sprague-Dawley rats (Male, 210 ± 20 g, 7–8 weeks) were provided by the Department of Experimental Animal, Beijing University (Beijing, China). Environmental controls for the animal room were set at 22 ± 3 °C with 50 ± 20% relative humidity. This animal study was performed in strict accordance with the recommendations in the Guide for the Care and Use of Laboratory Animals of China Association for Laboratory Animal Science. All animal care and experimental protocols were approved by the Animal Care Committee of Peking University Health Science Center. All sacrifice was performed under pentobarbitone anesthesia, and every effort was made to minimize suffering.
Rats were fasted 12 h prior to the study and were allowed access to food 4 h after oral dosing. Eighteen rats were divided randomly into six groups and rats were sampled at interval in each group. The blood samples at each time point were collected from six rats. The rats were dosed with a suspension of GLB (100 mg/kg, in 0.5% sodium carboxymethyl cellulose CMC-Na solution) and the blood samples were collected at the predose, 0.5, 1, 2, 4, 6, 8, 12, 24, 36, 48, 72 and 96 h post-dosing. The blood samples were centrifuged at 2800 rpm (1473 × g) for 20 min and the plasma was stored at −20 °C until analyzed.
The 400 μL plasma sample was transferred into a glass tube, followed by the addition of 25 μL of IS and 2 mL of extraction solvent ethyl acetate. The mixture was vortexed for 3 min to extract GLB and IS from plasma sample and then centrifuged at 2800 rpm (1473 × g) for 20 min. The upper organic phase was transferred into a glass tube. The sample was extracted twice with 2 mL of ethyl acetate for liquid-liquid extraction. The combined upper organic phases were evaporated to dryness at 37 °C under a gentle stream of nitrogen gas. The residue was reconstituted with 100 μL of methanol and was injected 20 μL into the HPLC system. In addition, in order to perform mass spectrometry analyses, the residue was reconstituted with 150 μL of methanol-water (v/v, 1:1), and then centrifuged at 14000 rpm (17968 × g) for 15 min, the upper liquid was transferred into sample vials and 10 μL was injected for UPLC-QTOF/MS analysis.
The pharmacokinetic parameters of GLB were calculated by a non-compartmental pharmacokinetic analysis method using Drug and Statistical Version 3.0 (DAS 3.0) software (the Mathematical Pharmacology Committee, Chinese Pharmacological Society, China). The maximum peak concentration of the drug in plasma (Cmax) and the time to reach the maximum concentration (Tmax) were estimated from the experimental data. The area under the plasma concentration-time curves from 0 to infinity (i.e., AUC0-∞) and from 0 to 96 h (AUC0-96) were calculated by the trapezoidal summation. […]

The mark [1] stands for this setting: male, Sprague-Dawley, rat, plasma, 100 mg/kg, rat, M1/M2 relative to GLB standard curve.
Where [2] appears, read: male, Sprague-Dawley, rat, plasma, 100 mg/kg, 36 h after single oral GLB 100 mg/kg, rat, M1/M2 relative to GLB standard curve.
The mark [3] stands for this setting: male, Sprague-Dawley, rat, plasma, po, 100 mg/kg, n = 6, read-out: Tmax.
[4] abbreviates: male, Sprague-Dawley, n = 6, M1/M2 relative concentrations from GLB standard curve.

Experimental findings from PMC4493701, “Quantitative and qualitative analysis of the novel antitumor 1,3,4-oxadiazole derivative (GLB) and its metabolites using HPLC-UV and UPLC-QTOF-MS” (Scientific Reports, 2015) are described below.

Where two headings read alike, the source gives them in different places.

The Tmax is the time from dosing to the highest level. What is called half-life is how long it takes for the measured level to halve. A higher half-life goes with slow loss. Broadly, the Cmax is the maximum level reached in the sampled fluid or tissue. As a reminder, the AUC(0-inf) is total exposure, with the tail of the curve extrapolated. The low end stands for low exposure, the high end for high exposure. `CC(=O)N1N=C(c2ccc(Br)cc2)OC12C1OC(C)(C)OC1COC21COC(C)(C)O1` (stereo not shown) [GLB, Fructose-based 3-acetyl-2,3-dihydro-1,3,4-oxadiazole] showed a Plasma concentration (36 h after single oral GLB 100 mg/kg, rat, M1/M2 relative to GLB standard curve) of 0.14 ± 0.18 µg/mL. Under setting [1], the concentration at 0.5 h is 0.043 ± 0.151 µg/mL, the concentration at 1 h was 0.673 ± 0.065 µg/mL, the concentration at 2 h stood at 1.41 ± 0.21 µg/mL and the concentration at 4 h was 1.46 ± 0.21 µg/mL. Moreover, under setting [1], the concentration at 6 h came to 2.78 ± 0.887 µg/mL, the concentration at 8 h was determined as 1.6 ± 0.656 µg/mL, the concentration at 12 h turned out to be 1.47 ± 0.672 µg/mL and the concentration at 24 h came to 0.262 ± 0.241 µg/mL. Under setting [1], the concentration at 48 h was determined as 0.058 ± 0.063 µg/mL, the concentration at 72 h amounted to 0.011 ± 0.005 µg/mL and the concentration at 96 h was determined as 0.016 ± 0.017 µg/mL. Moreover, the concentration at 36 h under setting [2] came out at 0.139 ± 0.183 µg/mL. The Tmax under setting [3] came to 6 h. For the setting “male, Sprague-Dawley, n = 6”, this compound had a half-life of 9.24 ± 4.74 h. Moreover, the Cmax (male, Sprague-Dawley, n = 6, text, read-out: Cmax) is 2.78 ± 0.89 µg/mL. Also, under setting [4], the AUC(0-inf) amounted to 33.5 ± 9.05 µg·h/mL and the AUC(0-t) was found to be 33.3 ± 9.1 µg·h/mL. For the setting “n = 6, M1/M2 relative concentrations from GLB standard curve”, the highest concentration (Cmax) turned out to be 2.78 ± 0.89 µg/mL.
As to `CC(=O)N1N=C(c2ccc(Br)cc2)OC1(C1OC(C)(C)OC1C(=O)O)C1(O)COC(C)(C)O1` (stereo not shown) [M1], under setting [1], the concentration at 0.5 h came to 0.027 ± 0.014 µg/mL, the concentration at 1 h amounted to 0.091 ± 0.021 µg/mL, the concentration at 2 h is 0.242 ± 0.055 µg/mL and the concentration at 4 h amounted to 0.336 ± 0.059 µg/mL. Under setting [1], this compound displayed a concentration at 6 h of 0.517 ± 0.113 µg/mL, a concentration at 8 h of 0.443 ± 0.137 µg/mL, a concentration at 12 h of 0.39 ± 0.114 µg/mL and a concentration at 24 h of 0.185 ± 0.182 µg/mL. For the same compound, under setting [1], the concentration at 48 h was found to be 0.024 ± 0.02 µg/mL, the concentration at 72 h amounted to 0.015 ± 0.009 µg/mL and the concentration at 96 h was found to be 0.025 ± 0.011 µg/mL. Also, the concentration at 36 h under setting [2] stood at 0.037 ± 0.015 µg/mL. For the same compound, the Tmax under setting [3] was 6 h. Where the note is “male, Sprague-Dawley, n = 6”, this compound had a half-life of 11.3 ± 5.94 h. Under setting [4], the AUC(0-inf) came out at 10.1 ± 3.34 µg·h/mL and the AUC(0-t) is 9.66 ± 3.38 µg·h/mL. Moreover, the highest concentration (Cmax) (male, Sprague-Dawley, n = 6, M1/M2 relative concentrations from GLB standard curve, read-out: Cmax) came out at 0.54 ± 0.1 µg/mL. Besides, for the setting “n = 6”, the Tmax is reported as 7.33 ± 2.73 h.
